Measured values: US20240277732A1, “COMPOSITIONS AND METHODS FOR TREATING BRAIN-GUT DISORDERS” (Enterin, Inc., priority 2018, published 2024)

What was measured:
[1] = PK profile IN versus IV bolus; assay type: in vivo; settings: rat, 2 mg/kg IV bolus
Source text: Thus, the amount of aminosterol in the bloodstream is too low to account for the observed pharmacological effect. This means that when administered IN, an aminosterol is having a pharmacological effect via a mechanism other than via plasma concentration of the drug.

[2] = Weight change after IP or IN administration; assay type: in vivo; settings: mice
Description: The purpose of this example was to evaluate and compare the impact on weight following administration of an aminosterol such as Aminosterol 1436 to mice via IP or IN.
Mice were administered: (i) intraperitoneally 1 mg/kg or 10 mg/kg of Aminosterol 1436, (ii) intranasally 0.4 mg/kg of Aminosterol 1436, or (iii) a saline control administered IN. Weight of the mice was then measured for 10 days post-administration.

[3] = Intranasal pharmacokinetics in plasma; assay type: in vivo, Sprague Dawley rats; settings: Sprague-Dawley, rat, in vivo
Source text: The purpose of this example was to evaluate the in vivo distribution and function of aminosterols, such as Aminosterol 1436 and squalamine, following intranasal administration. This experiment relates to the amount of drug needed to obtain a therapeutic result, based on an IN route of administration. The results described below detail that aminosterols such as Aminosterol 1436 act at the level of the hypothalamus following in vivo administration, regardless of the route of administration.

[4] = Brain distribution, food intake and body weight after IP or ICV administration; assay type: in vivo; settings: 10 and 40 μg ICV, 5 mg/kg IP
Source text: The purpose of this example was to evaluate the in vivo distribution of the aminosterol Aminosterol 1436 following intraperitoneal administration (IP) and ICV administration, and to determine the impact the drug has on food intake and body weight when administered IP and ICV.
Additional data regarding in vivo distribution and the effect of the route of administration for an aminosterol is shown in FIG. 7.
This experiment is relevant as the areas of the brain where the aminosterol Aminosterol 1436 localized upon administration are known to control feeding behavior and appetite.

[5] = Brain distribution of radiolabeled Aminosterol 1436 after IV or ICV administration; assay type: in vivo; settings: rats
Source text: The purpose of this example was to evaluate the in vivo distribution of Aminosterol 1436 following intracerebroventricular (ICV) and intravenous (IV) administration to rats. ICV injection is an invasive injection technique of substances directly into the cerebrospinal fluid in cerebral ventricles to bypass the blood brain barrier. The results described below detail how aminosterols such as Aminosterol 1436 localize in the brain following in vivo administration, regardless of the route of administration.
Radiolabeled Aminosterol 1436 was injected into rats by two different forms of administration: ICV and IV administration.

exposure after IV bolus injection [1]: 190 µg·h/mL
blood levels after intranasal versus peripherally injected administration [3]: 10 times
AUC_% Extrap_obs ([3]; 0.5 mg/kg): 47.6%
AUClast/D ([3]; 0.5 mg/kg): 18700 kg·ng·h/mL/mg
site of localization in brain ([5]; IV administration): localized in the hypothalamus
SMILES: CC(C)[C@@H](CC[C@@H](C)[C@H]1CC[C@H]2[C@@H]3[C@H](O)C[C@H]4C[C@@H](NCCCNCCCCNCCCN)CC[C@]4(C)[C@H]3CC[C@]12C)OS(=O)(=O)O [Aminosterol 1436]
weight change over 10 days ([2]; 0.4 mg/kg IN): decrease in the weight of the mice in an amount comparable to 10 mg/kg of intraperitoneally administered Aminosterol 1436
weight change over 10 days ([2]; 1 mg/kg IP): compared similarly to the intranasally administered saline control
effect on food intake over 10 days [4]: significant impact on food intake
percent change in body weight [4]: decrease in body weight
site of localization in brain ([5]; ICV administration): localized to the same regions of the brain
